Earlier results as cited in patent US8088597B2, “Blood pressure lowering peptides from glycomacropeptide” (DSM IP Assets B.V., priority 2005, dated 2012).

How the values were obtained:
ACE = ACE (Homo sapiens, UniProt P12821); conditions: reported in the literature
[1] = tested on: spontaneously hypertensive rats; conditions: tripeptides derived from lactic acid bacteria fermented bovine milk; Nakamura et al. 1995

ACE, sequence (P12821 30-1306, species assumed): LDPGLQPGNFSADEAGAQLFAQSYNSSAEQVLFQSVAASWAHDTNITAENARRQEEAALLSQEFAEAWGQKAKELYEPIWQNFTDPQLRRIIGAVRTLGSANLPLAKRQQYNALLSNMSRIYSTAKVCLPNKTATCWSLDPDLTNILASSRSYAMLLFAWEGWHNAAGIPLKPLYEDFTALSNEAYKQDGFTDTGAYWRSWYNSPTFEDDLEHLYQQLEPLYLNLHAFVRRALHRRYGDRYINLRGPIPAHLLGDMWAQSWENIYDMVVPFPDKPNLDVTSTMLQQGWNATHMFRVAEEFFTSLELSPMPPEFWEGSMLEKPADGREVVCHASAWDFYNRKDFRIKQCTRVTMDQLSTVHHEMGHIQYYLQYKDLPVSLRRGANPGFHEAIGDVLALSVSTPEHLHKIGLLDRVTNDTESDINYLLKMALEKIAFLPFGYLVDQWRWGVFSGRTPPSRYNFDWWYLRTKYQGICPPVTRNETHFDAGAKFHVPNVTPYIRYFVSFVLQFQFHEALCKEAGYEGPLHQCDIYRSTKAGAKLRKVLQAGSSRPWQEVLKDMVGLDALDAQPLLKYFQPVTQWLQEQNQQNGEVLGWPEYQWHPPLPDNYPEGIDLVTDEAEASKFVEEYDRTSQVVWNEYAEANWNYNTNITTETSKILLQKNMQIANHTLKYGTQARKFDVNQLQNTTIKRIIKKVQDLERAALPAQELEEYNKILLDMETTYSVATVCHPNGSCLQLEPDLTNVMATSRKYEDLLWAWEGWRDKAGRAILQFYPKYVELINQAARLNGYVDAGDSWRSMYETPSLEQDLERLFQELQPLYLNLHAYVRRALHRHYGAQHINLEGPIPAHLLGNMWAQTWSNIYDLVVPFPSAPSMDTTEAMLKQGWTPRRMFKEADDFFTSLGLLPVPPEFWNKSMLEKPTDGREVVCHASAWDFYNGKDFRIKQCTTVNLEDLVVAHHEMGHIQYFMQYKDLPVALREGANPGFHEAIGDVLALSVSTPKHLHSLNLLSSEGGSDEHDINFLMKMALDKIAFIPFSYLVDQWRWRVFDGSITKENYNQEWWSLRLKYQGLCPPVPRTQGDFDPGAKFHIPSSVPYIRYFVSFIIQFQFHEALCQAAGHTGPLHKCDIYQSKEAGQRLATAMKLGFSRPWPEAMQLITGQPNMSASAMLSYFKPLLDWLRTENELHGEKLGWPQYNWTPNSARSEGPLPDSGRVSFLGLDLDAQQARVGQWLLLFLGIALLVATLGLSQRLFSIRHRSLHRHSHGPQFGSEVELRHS

| ACE inhibiting activity (ACE) | Substance | antihypertensive effects [1] |
| --- | --- | --- |
| Strong ACE inhibiting activities | Ile-Pro-Pro | confirmed |
| Strong ACE inhibiting activities | Leu-Pro-Pro |  |

| Substance | ACE inhibiting activity (ACE) | antihypertensive effects [1] |
| --- | --- | --- |
| Val-Pro-Pro | Strong ACE inhibiting activities | confirmed |
